Assay results published in ChEMBL document CHEMBL3885861, “Open TG-GATES”.

Organism: Rattus norvegicus
Assay: Open TG-GATES - Regimen: Daily Repeat
Assay type: toxicity, organism-based, Sprague-Dawley
Parameters: regimen Daily Repeat, gender Male, age 6 weeks
Settings: in vivo, po, 40 mg/kg, […], route gavage, dose level Low; for KIDNEY_L / KIDNEY_R / KIDNEY_TOTAL: tissue Kidney; for LIVER: tissue Liver; for A/G / ALP / ALT / AST / BUN / CRE / Ca / Cl / DBIL / GLC / IP / K / LDH / Na / PL / RALB / TBIL / TC / TG / TP / gamma-GTP: tissue Plasma

Cc1cccc(C)c1OCC(C)N (stereo unspecified) [MEXILETINE]
Lym (tissue Blood, time 28 day): 79.8% | MCH (tissue Blood, time 28 day): 19.4 pg | MCHC (tissue Blood, time 28 day): 34.5% | MCV (tissue Blood, time 28 day): 56.3 fL | Mono (tissue Blood, time 28 day): 2.4% | Neu (tissue Blood, time 28 day): 15.6% | PT (tissue Blood, time 28 day): 15.9 s | Plat (tissue Blood, time 28 day): 101.8 x10_4/uL | RBC (tissue Blood, time 28 day): 766.6 x10_4/ul | Ret (tissue Blood, time 28 day): 2.8% | WBC (tissue Blood, time 28 day): 104.7 x10_2/uL | KIDNEY_L (time 7 day): 1.1 g | KIDNEY_R (time 7 day): 1.1 g | KIDNEY_TOTAL (time 7 day): 2.2 g | KIDNEY_L (time 14 day): 1.3 g | KIDNEY_R (time 14 day): 1.3 g | KIDNEY_TOTAL (time 14 day): 2.6 g | KIDNEY_L (time 28 day): 1.4 g | KIDNEY_R (time 28 day): 1.4 g | KIDNEY_TOTAL (time 28 day): 2.9 g | LIVER (time 7 day): 12.7 g | LIVER (time 14 day): 15.2 g | LIVER (time 28 day): 17.1 g | A/G (time 7 day): 1.2 | ALP (time 7 day): 1628.6 IU/L | ALT (time 7 day): 47.8 IU/L | AST (time 7 day): 72.4 IU/L | BUN (time 7 day): 19.6 mg/dL | CRE (time 7 day): 0.2 mg/dL | Ca (time 7 day): 10.6 mg/dL | Cl (time 7 day): 105.6 meq/L | DBIL (time 7 day): 0 mg/dL | GLC (time 7 day): 190 mg/dL | IP (time 7 day): 7.2 mg/dL | K (time 7 day): 4 meq/L | LDH (time 7 day): 162.8 IU/L | Na (time 7 day): 143.2 meq/L | PL (time 7 day): 145.2 mg/dL | RALB (time 7 day): 3 g/dL | TBIL (time 7 day): 0.002 mg/dL | TC (time 7 day): 82 mg/dL | TG (time 7 day): 108.8 mg/dL | TP (time 7 day): 5.6 g/dL | gamma-GTP (time 7 day): 1.8 IU/L | A/G (time 14 day): 1.1 | ALP (time 14 day): 1520 IU/L | ALT (time 14 day): 43.4 IU/L | AST (time 14 day): 69.6 IU/L | BUN (time 14 day): 18.6 mg/dL | CRE (time 14 day): 0.2 mg/dL | Ca (time 14 day): 10.5 mg/dL | Cl (time 14 day): 106.8 meq/L | DBIL (time 14 day): 0 mg/dL | GLC (time 14 day): 196.8 mg/dL | IP (time 14 day): 6.8 mg/dL | K (time 14 day): 4.2 meq/L | LDH (time 14 day): 154.2 IU/L | Na (time 14 day): 141.4 meq/L | PL (time 14 day): 152.8 mg/dL | RALB (time 14 day): 3 g/dL | TBIL (time 14 day): 0.002 mg/dL | TC (time 14 day): 80.4 mg/dL | TG (time 14 day): 136.8 mg/dL | TP (time 14 day): 5.9 g/dL | gamma-GTP (time 14 day): 2.4 IU/L | A/G (time 28 day): 1 | ALP (time 28 day): 1106 IU/L | ALT (time 28 day): 37.8 IU/L | AST (time 28 day): 62.4 IU/L | BUN (time 28 day): 17.6 mg/dL | CRE (time 28 day): 0.2 mg/dL | Ca (time 28 day): 10.5 mg/dL | Cl (time 28 day): 106 meq/L | DBIL (time 28 day): 0 mg/dL | GLC (time 28 day): 197.2 mg/dL | IP (time 28 day): 6.5 mg/dL | K (time 28 day): 3.8 meq/L | LDH (time 28 day): 154.6 IU/L | Na (time 28 day): 142.8 meq/L | PL (time 28 day): 146.4 mg/dL | RALB (time 28 day): 3.1 g/dL | TBIL (time 28 day): 0.014 mg/dL | TC (time 28 day): 67.8 mg/dL | TG (time 28 day): 174.2 mg/dL | TP (time 28 day): 6.1 g/dL | gamma-GTP (time 28 day): 2.4 IU/L
